Source: ChEMBL document CHEMBL1134125, “Piperazinyl benzamidines: synthesis and affinity for the delta opioid receptor” (Bioorg Med Chem Lett, 2001)

Key:
[1] = biological target: Delta-type opioid receptor (Rattus norvegicus, UniProt P33533); assay: Inhibition of binding of [3H]-DPDPE to opioid receptor delta 1 from rat brain membrane.
[2] = biological target: Mu-type opioid receptor (Rattus norvegicus, UniProt P33535); assay: Inhibition of binding of [3H]DAMGO to opioid receptor mu 1 from rat brain membrane.
Sequence of Mu-type opioid receptor (P33535 whole entry): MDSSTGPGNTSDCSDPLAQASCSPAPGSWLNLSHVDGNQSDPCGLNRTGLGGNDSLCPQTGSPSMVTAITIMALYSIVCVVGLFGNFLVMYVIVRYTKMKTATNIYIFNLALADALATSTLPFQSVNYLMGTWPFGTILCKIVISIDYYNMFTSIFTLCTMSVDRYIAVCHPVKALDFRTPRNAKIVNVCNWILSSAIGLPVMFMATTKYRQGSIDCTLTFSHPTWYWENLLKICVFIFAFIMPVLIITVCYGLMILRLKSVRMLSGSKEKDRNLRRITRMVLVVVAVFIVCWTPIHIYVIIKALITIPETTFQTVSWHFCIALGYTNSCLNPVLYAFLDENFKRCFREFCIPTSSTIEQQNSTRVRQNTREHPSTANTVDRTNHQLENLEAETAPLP

Sequence of Delta-type opioid receptor (P33533 whole entry): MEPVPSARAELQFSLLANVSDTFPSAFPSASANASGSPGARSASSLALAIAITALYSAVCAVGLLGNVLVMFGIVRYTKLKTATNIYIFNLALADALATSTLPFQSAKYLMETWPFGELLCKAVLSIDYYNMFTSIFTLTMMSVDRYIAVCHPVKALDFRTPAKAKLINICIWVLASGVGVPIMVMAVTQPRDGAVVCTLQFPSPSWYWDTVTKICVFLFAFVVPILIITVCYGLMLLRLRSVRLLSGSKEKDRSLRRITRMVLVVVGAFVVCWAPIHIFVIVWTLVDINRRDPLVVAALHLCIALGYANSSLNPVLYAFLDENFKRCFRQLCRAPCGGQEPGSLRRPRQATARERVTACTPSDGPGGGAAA

Row | SMILES | Ki [1] | Ki [2]
1 | CCN(CC)C(=O)c1ccc(/C(=N/c2ccccc2C(F)(F)F)N2CCN(Cc3ccccc3)CC2)cc1 | 1.22 nM | 1200 nM
2 | C=CCN1CCN(/C(=N\c2cccc(Cl)c2)c2ccc(C(=O)N(CC)CC)cc2)CC1 | 157 nM | > 10000 nM
3 | CCN(CC)C(=O)c1ccc(/C(=N/c2ccc(Cl)cc2)N2CCN(Cc3ccccc3)CC2)cc1 | 142 nM | > 10000 nM
4 | CCN1CCN(/C(=N\c2ccccc2)c2ccc(C(=O)N(CC)CC)cc2)CC1 | 16 nM | 1000 nM
5 | CCCN1CCN(/C(=N\c2cccc(Cl)c2)c2ccc(C(=O)N(CC)CC)cc2)CC1 | 177 nM | 9530 nM
6 | CCN(CC)C(=O)c1ccc(/C(=N/c2ccccc2Cl)N2CCN(CCOC)CC2)cc1 | 53.5 nM | > 10000 nM
7 | CCN(CC)C(=O)c1ccc(/C(=N/c2ccccc2)N2CCCN(CCc3ccccc3)CC2)cc1 | 543 nM | 396 nM
8 | CCCN1CCN(/C(=N\c2ccccc2Cl)c2ccc(C(=O)OC)cc2)CC1 | 87.3 nM | 2070 nM
9 | C=CCN1CCN(/C(=N\c2ccccc2Cl)c2ccc(C(=O)N(CC)CC)cc2)CC1 | 20.5 nM | 7600 nM
10 | C=CCN1C[C@H](C)N(/C(=N\c2ccccc2)c2ccc(C(=O)N(CC)CC)cc2)C[C@H]1C | 170 nM | 
11 | CCN1CCN(/C(=N\c2ccccc2F)c2ccc(C(=O)N(CC)CC)cc2)CC1 | 118 nM | > 1000 nM
12 | CCN1CCN(/C(=N\c2cccc(Br)c2)c2ccc(C(=O)N(CC)CC)cc2)CC1 | 57.6 nM | > 10000 nM
13 | CCN(CC)C(=O)c1ccc(/C(=N/c2ccccc2)N2CCN(CCc3cccs3)CC2)cc1 | 764 nM | > 10000 nM
14 | C=CCN1C[C@H](C)N(/C(=N\c2ccccc2)c2ccc(C(=O)OC)cc2)C[C@H]1C | 405 nM | 
15 | CCN(CC)C(=O)c1ccc(/C(=N/c2ccccc2Cl)N2CCCN(CCc3ccccc3)CC2)cc1 | 29.6 nM | 618 nM
16 | CCN1CCN(/C(=N\c2cccc(Cl)c2)c2ccc(C(=O)N(CC)CC)cc2)CC1 | 63 nM | > 1000 nM
17 | CCCN(CCC)C(=O)c1ccc(/C(=N/c2ccccc2OC)N2CCN(CC)CC2)cc1 | 1020 nM | 3910 nM
18 | CCN1CCN(/C(=N\c2ccccc2Cl)c2ccc(C(=O)N(CC)CC)cc2)CC1 | 91.1 nM | > 1000 nM
19 | CCN1CCN(/C(=N\c2cccc(F)c2)c2ccc(C(=O)N(CC)CC)cc2)CC1 | 58.5 nM | > 10000 nM
20 | CCCN(CCC)C(=O)c1ccc(/C(=N/c2ccccc2Cl)N2CCN(CC)CC2)cc1 | 292 nM | 3930 nM
21 | CCN1CCN(/C(=N\c2cc(Cl)cc(Cl)c2)c2ccc(C(=O)N(CC)CC)cc2)CC1 | 277 nM | > 1000 nM
22 | CCN(CC)C(=O)c1ccc(/C(=N/c2ccccc2)N2CCN(Cc3ccccc3)CC2)cc1 | 212 nM | > 10000 nM
23 | C=CCN1CCN(/C(=N\c2ccccc2)c2ccc(C(=O)N(CC)CC)cc2)CC1 | 859 nM | 1000 nM
24 | CCN(CC)C(=O)c1ccc(/C(=N/c2ccccc2Cl)N2CCN(Cc3ccccc3)CC2)cc1 | 11.8 nM | > 10000 nM
25 | CCN(CC)C(=O)c1ccc(/C(=N/c2ccccc2C(F)(F)F)N2CCN(CCOC)CC2)cc1 | 22.9 nM | 2960 nM
26 | COC(=O)c1ccc(/C(=N/c2ccccc2Cl)N2CCCN(CCc3ccccc3)CC2)cc1 | 101 nM | 197 nM
27 | CCN(CC)C(=O)c1ccc(/C(=N/c2ccccc2Cl)N2CCN(CCc3cccs3)CC2)cc1 | 95.3 nM | > 10000 nM
28 | CCN(CC)C(=O)c1ccc(/C(=N/c2ccccc2C(F)(F)F)N2CCN(CCc3ccccc3)CC2)cc1 | 545 nM | 1000 nM
29 | CCN1CCN(/C(=N\c2ccccc2Cl)c2ccc(C(=O)OC)cc2)CC1 | 222 nM | > 1000 nM
30 | COC(=O)c1ccc(/C(=N/c2ccccc2)N2CCCN(CCc3ccccc3)CC2)cc1 | 820 nM | 232 nM
